Measurements published in publication PMC6240891, “Functional Analysis of Four Terpene Synthases in Rose-Scented Pelargonium Cultivars (Pelargonium × hybridum) and Evolution of Scent in the Pelargonium Genus” (Frontiers in Plant Science, 2018).

Assays:
Assay in all cases: GC-MS product analysis
Type in all cases: biochemical
Details in all cases: 10 mM MgCl2, 1 mM MnCl2, pH 7.5, 30°C, 2 h
PhEDS = target: T1, PhEDS (Pelargonium graveolens, UniProt A0A2S1JKY7)
T1 construct: gene EUS; full-length; E. coli Rosetta (DE3) pLysS
T1 sequence (A0A2S1JKY7 1-567): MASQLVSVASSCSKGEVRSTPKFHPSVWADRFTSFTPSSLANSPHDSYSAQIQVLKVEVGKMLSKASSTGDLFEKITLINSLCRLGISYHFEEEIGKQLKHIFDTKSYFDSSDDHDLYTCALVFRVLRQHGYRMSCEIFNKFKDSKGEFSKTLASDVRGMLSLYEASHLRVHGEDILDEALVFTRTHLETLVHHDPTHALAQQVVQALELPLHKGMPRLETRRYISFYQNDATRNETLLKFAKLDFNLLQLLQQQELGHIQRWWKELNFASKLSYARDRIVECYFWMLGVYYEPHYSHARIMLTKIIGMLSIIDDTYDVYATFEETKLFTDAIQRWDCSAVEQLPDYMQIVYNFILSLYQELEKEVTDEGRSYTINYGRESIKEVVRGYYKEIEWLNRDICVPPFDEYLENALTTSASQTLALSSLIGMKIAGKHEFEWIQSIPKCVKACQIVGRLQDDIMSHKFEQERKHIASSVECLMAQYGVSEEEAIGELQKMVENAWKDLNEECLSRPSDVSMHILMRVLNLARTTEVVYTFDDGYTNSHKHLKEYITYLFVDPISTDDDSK

PhMYRS = target: T2, PhMYRS (Pelargonium graveolens, UniProt A0A2S1JKZ8)
T2 construct: gene MYRS; full-length (predicted plastid-targeted); E. coli Rosetta (DE3) pLysS
T2 sequence (A0A2S1JKZ8 1-606): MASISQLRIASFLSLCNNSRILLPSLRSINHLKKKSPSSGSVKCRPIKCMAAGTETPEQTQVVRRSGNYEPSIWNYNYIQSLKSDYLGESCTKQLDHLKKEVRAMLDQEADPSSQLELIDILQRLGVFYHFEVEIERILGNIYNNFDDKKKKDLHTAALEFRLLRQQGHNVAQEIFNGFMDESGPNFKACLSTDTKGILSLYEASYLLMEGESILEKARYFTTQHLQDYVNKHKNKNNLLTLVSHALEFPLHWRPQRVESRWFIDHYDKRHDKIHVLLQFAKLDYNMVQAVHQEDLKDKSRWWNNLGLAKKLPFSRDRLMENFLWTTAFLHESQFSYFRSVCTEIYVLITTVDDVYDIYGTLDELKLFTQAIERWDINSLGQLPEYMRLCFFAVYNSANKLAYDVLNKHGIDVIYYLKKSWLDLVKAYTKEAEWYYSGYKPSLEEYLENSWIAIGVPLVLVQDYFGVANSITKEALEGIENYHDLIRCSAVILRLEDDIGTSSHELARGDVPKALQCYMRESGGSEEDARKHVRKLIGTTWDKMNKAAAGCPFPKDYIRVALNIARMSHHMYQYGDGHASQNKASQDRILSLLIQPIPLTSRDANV

PhGES = target: T3, PhGES (Pelargonium graveolens, UniProt A0A2S1JKY6)
T3 construct: gene GES; full-length (plastid-targeted); E. coli Rosetta (DE3) pLysS; 'Grasse' form lacks the TAL triplet of 'Bourbon' and 'Egypt'
T3 sequence (A0A2S1JKY6 1-555): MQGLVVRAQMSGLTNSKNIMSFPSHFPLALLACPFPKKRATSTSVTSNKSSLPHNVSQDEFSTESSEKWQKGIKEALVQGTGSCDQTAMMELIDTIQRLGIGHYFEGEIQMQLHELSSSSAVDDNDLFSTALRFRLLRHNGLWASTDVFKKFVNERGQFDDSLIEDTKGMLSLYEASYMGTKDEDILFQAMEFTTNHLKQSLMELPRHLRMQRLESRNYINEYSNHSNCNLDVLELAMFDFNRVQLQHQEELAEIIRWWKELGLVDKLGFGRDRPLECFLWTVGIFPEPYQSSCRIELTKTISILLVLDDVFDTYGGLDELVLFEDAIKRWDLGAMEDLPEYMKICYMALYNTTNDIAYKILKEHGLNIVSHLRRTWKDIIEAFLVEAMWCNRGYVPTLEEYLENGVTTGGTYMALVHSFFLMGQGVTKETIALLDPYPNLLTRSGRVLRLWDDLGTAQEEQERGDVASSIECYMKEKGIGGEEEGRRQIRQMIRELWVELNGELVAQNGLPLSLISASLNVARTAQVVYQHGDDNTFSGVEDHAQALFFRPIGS

**Q.** For CC1=C2CC(C(C)(C)O)CCC2(C)CCC1 (stereo not drawn) [10-epi-γ-eudesmol], which GC-MS product analysis (PhEDS; major product from FPP) is on record?
**A.** PhEDS (MF503882) produced 10-epi-γ-eudesmol and α-eudesmol as major and minor products

**Q.** How did the GC-MS product analysis (PhEDS; 50 µM) turn out when CC(C)=CCC/C(C)=C/CC/C(C)=C/COP(=O)(O)OP(=O)(O)O [FPP] was run?
**A.** PhEDS (MF503882) produced 10-epi-γ-eudesmol and α-eudesmol as major and minor products, respectively, after incubation with FPP

**Q.** With CC(C)=CCC/C(C)=C/COP(=O)(O)OP(=O)(O)O [GPP] as the compound, how does the GC-MS product analysis (PhMYRS; 50 µM) read?
**A.** PhMYRS (MF503884) used GPP to produce β-myrcene as major compound

**Q.** What about the GC-MS product analysis (PhGES; 50 µM) of the same compound?
**A.** PhGES (MF503883) produced uniquely geraniol in presence of GPP as a substrate

**Q.** With CC(C)=CCC/C(C)=C/CO [geraniol] as the compound, how does the GC-MS product analysis (PhGES; sole product from GPP) read?
**A.** PhGES (MF503883) produced uniquely geraniol in presence of GPP as a substrate

**Q.** Which GC-MS product analysis (PhMYRS; major product from GPP) does the source give for C=CC(=C)CCC=C(C)C [β-myrcene] here?
**A.** PhMYRS (MF503884) used GPP to produce β-myrcene as major compound
